The results in this text go back to patent US11192863B2, “Antiviral compounds and methods” (Biotron Limited, priority 2003, dated 2021).

As a reminder, the inhibition is the drop in the measured response relative to a control, in per cent. Usually EC50 stands for the concentration that produces a half-maximal response. High values mean a need for much substance, low ones an effect from little substance. A word on the IC50: it is the midpoint of a concentration-inhibition curve. Low values mean inhibition by little substance, high ones a need for much substance.

Read-outs that look alike come from different tables or passages of the source.

The test system of one test is HIV. The test is classed as cell-based.
The target of test [1] is SARS E protein ion channel (Severe acute respiratory syndrome coronavirus, UniProt P59637). The test is classed as biochemical, SARS-CoV.
The next test concerns the target SARS-CoV E protein (Severe acute respiratory syndrome coronavirus, UniProt P59637). The test is classed as cell-based.
In a further test the test system is human coronavirus OC43. In words: microbe, parasite or virus in culture. Particulars: Betacoronavirus 1, OC43, MRC5, 120 h, MRC-5 cells, 5 days post infection. The test is classed as cell-based.
Test [2] has as its system porcine respiratory coronavirus (PRCV) strain AR310. In words: PRCV plaque assay in ST cells. Particulars: Alphacoronavirus 1; PRCV plaques in ST cells. The test is classed as cell-based.
Another test relates to bovine coronavirus (BCV). In words: BCV plaque assay in MDBK cells. The test is classed as cell-based. Particulars: Betacoronavirus 1; BCV plaques in MDBK cells.
For another test, the system named is EAV (strain Bucyrus). As to the kind of experiment: EAV plaque reduction assay in BHK-21 cells. The test is classed as cell-based. Particulars: Equine arteritis virus; EAV plaques in BHK-21 cells. As for the experimental part: To determine the antiviral activity of compounds against EAV replication (strain Bucyrus; ATCC VR-796), an assay measuring reduction in the number of plaques formed in monolayers of EAV infected BHK-21 cells (ATCC CCL-10) was developed: […] Plates were subsequently incubated at 37° C. […] Plaques were counted in all wells and the percentage reduction in plaque number compared to solvent control was calculated. Measurements were performed in duplicate to quadruplicate wells.
(In general: Plaque reduction counts the foci of infection that form in a cell layer.)

Test [3] addresses Dengue virus M protein C-terminal peptide (Dengue virus type 1, UniProt P33478). As to the kind of experiment: Dengue virus M protein C-terminal peptide ion channel in lipid bilayers. The test is classed as biochemical. Particulars: final concentration of HMA 100 μM in cis chamber. As for the experimental part:
The dengue virus M protein C-terminal peptide (DMVC) was dissolved in 2,2,2-trifluorethanol (TFE) at 0.05 mg/ml to 1 mg/ml. […] Channel activity was seen within 15-30 min.
Solutions of 50 mM HMA were prepared by first making a 500 mM solution in DMSO. This solution was further diluted to 50 mM HMA using 0.1 M HCl. 2 μl of the 50 mM HMA was added to the cis chamber after channel activity was seen. The cis chamber contained 1 ml of solution making the final concentration of HMA 100 μM.

A further test concerns the target Vpu protein (Human immunodeficiency virus type 1 group M subtype B, UniProt P05919).
The next test has as its system MHV (strain MHV-A59). Particulars: L929 cells.
A further test deals with 229E-CoV E-protein (Human coronavirus 229E, UniProt P19741). As to the kind of experiment: Bacterial bio-assay for 229E-CoV E-protein. Particulars: halo of growth score; E. coli expressing E protein at 37° C.

Take `NC(N)=NC(=O)c1nc(Cl)c(N2CCCCCC2)nc1N` [5-(N,N-hexamethylene)amiloride]: the “Percent of Positive Control” value is listed as 30% in the test with HIV (Drug Conc. 0.625 μM); 19% in the test on HIV (Drug Conc. 1.25 μM); 50% in the test on HIV (Drug Conc. 2.5 μM); 21% in the test on HIV (Drug Conc. 5 μM); 6% in the test on HIV (Drug Conc. 10 μM). For the same compound, the “At least 1x log reduction seen in p24 assay?” value in the test on HIV (Table 19b, yes/no) is recorded as “no”. The “% Reduction of average current by 100 μM” value in test [1] was found to be 91 ± 7%. Moreover, on SARS-CoV E protein, the “SARS E protein Inhibition (score/# of times tested)” value was 1.2/3 score. The same compound had an inhibition at 2.5 µM in the test on human coronavirus OC43 of 30%. Further, the figures for the EC50 (in [2]; with bovine coronavirus (BCV)) were 0.06 µM and 9 µM, respectively. In the test with EAV (strain Bucyrus), this compound returned an IC50 of 7.5 µM. Also, the “ion channel activity of the Dengue virus M protein C-terminal peptide (in words)” value in test [3] is “Inhibits Ion Channel Activity”. Besides, the “bacterial growth around site of drug application (FIG. 5)” value on Vpu protein (3 μl drop, minimal medium lacking adenine, 37° C. 48 hr) is reported as “halo of bacterial growth”. In addition, the “Bacterial assay rank order” value on Vpu protein (Table 19a, rank among 12 compounds, 1 = highest score) is listed as 10; on Vpu protein (Table 19b), 10. Further, the “Vpu Bacterial score” value at Vpu protein (Table 19b) is 1.9. Besides, the “Vpu Inhibition (score/# of times tested)” value at Vpu protein (halo of growth score between zero and six, XL1-blue E. coli with pPL-Vpu, no adenine, 37° C.) was 1.9/31 score. The “Percent reduction in Plaque number/# experiments” value in the test on MHV (strain MHV-A59) (1 uM) is listed as 13/2%; in the test with MHV (strain MHV-A59) (10 uM), 89/1%; with MHV (strain MHV-A59) (20 uM) it was 84/2%. Further, the “229E E protein Inhibition (score)” value on 229E-CoV E-protein was 1.9 score.
